“And” between values parts separate entries of the source, which are not always exact repeats. Identical values can stand only once. Toxic doses and inconclusive results are not listed. Rule as the data show it: active = T/C of 150% or more; inactive = T/C below 125%.
Tested on: L1210 leukemia ip in BDF1 mice, survival T/C
Assay: NCI In Vivo Anticancer Drug Screen. Data for tumor model L1210 Leukemia (intraperitoneal) in B6D2F1 (BDF1) mice
Conditions: higher = longer survival
Method in brief: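 Ratio derived from survival: compound-dosed mice over vehicle-dosed mice, all bearing a transplantable tumor.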

Measured: T/C

C[n+]1c2ccccc2nc2c(N)cc(N)cc21
inactive: endpoint: mean survival time, dose: 1.0 mg/kg/injection, schedule: Q03HX024 (ip), vehicle: saline 101 % of control | endpoint: mean survival time, dose: 1.25 mg/kg/injection, schedule: Q#A X030 (ip), vehicle: water 104 % of control | endpoint: mean survival time, dose: 2.0 mg/kg/injection, schedule: Q01DX005 (iv), vehicle: saline 99 % of control | endpoint: mean survival time, dose: 2.0 mg/kg/injection, schedule: Q01DX009 (ip), vehicle: saline 96 % of control | endpoint: mean survival time, dose: 2.0 mg/kg/injection, schedule: Q03HX016 (ip), vehicle: saline 101 % of control | endpoint: mean survival time, dose: 2.0 mg/kg/injection, schedule: Q03HX024 (ip), vehicle: saline 107 % of control | endpoint: mean survival time, dose: 2.5 mg/kg/injection, schedule: Q01DX010 (oral), vehicle: water 105 % of control | endpoint: mean survival time, dose: 2.5 mg/kg/injection, schedule: Q#A X030 (ip), vehicle: water 107 % of control | endpoint: mean survival time, dose: 3.0 mg/kg/injection, schedule: Q01DX Z (ip), vehicle: saline 109 % of control | endpoint: mean survival time, dose: 3.12 mg/kg/injection, schedule: Q01DX001 (ip), vehicle: water 109 % of control and 110 % of control | endpoint: mean survival time, dose: 4.0 mg/kg/injection, schedule: Q01DX001 (iv), vehicle: saline 94 % of control | endpoint: mean survival time, dose: 4.0 mg/kg/injection, schedule: Q01DX005 (iv), vehicle: saline 96 % of control | endpoint: mean survival time, dose: 4.0 mg/kg/injection, schedule: Q01DX007 (iv), vehicle: saline 113 % of control | endpoint: mean survival time, dose: 4.0 mg/kg/injection, schedule: Q01DX009 (ip), vehicle: saline 104 % of control | endpoint: mean survival time, dose: 4.0 mg/kg/injection, schedule: Q01DX Z (sc), vehicle: steriod suspending solution 103 % of control | endpoint: mean survival time, dose: 4.0 mg/kg/injection, schedule: Q03HX008 (ip), vehicle: saline 107 % of control | endpoint: mean survival time, dose: 4.0 mg/kg/injection, schedule: Q03HX016 (ip), vehicle: saline 96 % of control | endpoint: mean survival time, dose: 4.0 mg/kg/injection, schedule: Q03HX024 (ip), vehicle: saline 100 % of control | endpoint: mean survival time, dose: 4.4 mg/kg/injection, schedule: Q#A X Z (ip), vehicle: carboxymethylcellulose (CMC) 110 % of control | endpoint: mean survival time, dose: 5.0 mg/kg/injection, schedule: Q01DX001 (ip), vehicle: saline 103 % of control | endpoint: mean survival time, dose: 5.0 mg/kg/injection, schedule: Q01DX009 (ip), vehicle: saline 111 % of control | endpoint: mean survival time, dose: 5.0 mg/kg/injection, schedule: Q01DX Z (im), vehicle: saline 104 % of control | endpoint: mean survival time, dose: 5.0 mg/kg/injection, schedule: Q01DX Z (ip), vehicle: saline 112 % of control | endpoint: mean survival time, dose: 6.25 mg/kg/injection, schedule: Q01DX001 (ip), vehicle: water 110 % of control | endpoint: mean survival time, dose: 6.65 mg/kg/injection, schedule: Q#A X Z (ip), vehicle: carboxymethylcellulose (CMC) 104 % of control | endpoint: mean survival time, dose: 8.0 mg/kg/injection, schedule: Q01DX001 (iv), vehicle: saline 96 % of control | endpoint: mean survival time, dose: 8.0 mg/kg/injection, schedule: Q01DX005 (iv), vehicle: saline 93 % of control | endpoint: mean survival time, dose: 8.0 mg/kg/injection, schedule: Q01DX007 (iv), vehicle: saline 104 % of control | endpoint: mean survival time, dose: 8.0 mg/kg/injection, schedule: Q01DX009 (ip), vehicle: saline 101 % of control | endpoint: mean survival time, dose: 8.0 mg/kg/injection, schedule: Q01DX Z (sc), vehicle: steriod suspending solution 109 % of control | endpoint: mean survival time, dose: 8.0 mg/kg/injection, schedule: Q03HX008 (ip), vehicle: saline 110 % of control | endpoint: mean survival time, dose: 8.0 mg/kg/injection, schedule: Q03HX016 (ip), vehicle: saline 101 % of control | endpoint: mean survival time, dose: 8.0 mg/kg/injection, schedule: Q03HX024 (ip), vehicle: saline 112 % of control | endpoint: mean survival time, dose: 8.0 mg/kg/injection, schedule: Q04DX003 (ip), vehicle: saline 101 % of control | endpoint: mean survival time, dose: 10.0 mg/kg/injection, schedule: Q01DX001 (ip), vehicle: saline 103 % of control | endpoint: mean survival time, dose: 10.0 mg/kg/injection, schedule: Q01DX010 (oral), vehicle: water 113 % of control | endpoint: mean survival time, dose: 10.0 mg/kg/injection, schedule: Q01DX Z (im), vehicle: saline 106 % of control | endpoint: mean survival time, dose: 12.5 mg/kg/injection, schedule: Q01DX001 (ip), vehicle: water 112 % of control | endpoint: mean survival time, dose: 16.0 mg/kg/injection, schedule: Q01DX001 (iv), vehicle: saline 96 % of control | endpoint: mean survival time, dose: 16.0 mg/kg/injection, schedule: Q01DX005 (iv), vehicle: saline 102 % of control | endpoint: mean survival time, dose: 16.0 mg/kg/injection, schedule: Q01DX009 (sc), vehicle: saline 104 % of control | endpoint: mean survival time, dose: 16.0 mg/kg/injection, schedule: Q01DX Z (sc), vehicle: steriod suspending solution 104 % of control and 105 % of control | endpoint: mean survival time, dose: 16.0 mg/kg/injection, schedule: Q03HX008 (ip), vehicle: saline 107 % of control | endpoint: mean survival time, dose: 16.0 mg/kg/injection, schedule: Q03HX016 (ip), vehicle: saline 104 % of control and 113 % of control | endpoint: mean survival time, dose: 16.0 mg/kg/injection, schedule: Q04DX003 (ip), vehicle: saline 103 % of control | endpoint: mean survival time, dose: 16.0 mg/kg/injection, schedule: Q08DX002 (ip), vehicle: saline 102 % of control | endpoint: mean survival time, dose: 20.0 mg/kg/injection, schedule: Q01DX001 (ip), vehicle: saline 101 % of control | endpoint: mean survival time, dose: 20.0 mg/kg/injection, schedule: Q01DX009 (ip), vehicle: saline 110 % of control | endpoint: mean survival time, dose: 20.0 mg/kg/injection, schedule: Q01DX010 (oral), vehicle: water 107 % of control and 111 % of control | endpoint: mean survival time, dose: 20.0 mg/kg/injection, schedule: Q01DX Z (im), vehicle: saline 108 % of control | endpoint: mean survival time, dose: 20.0 mg/kg/injection, schedule: Q01DX Z (ip), vehicle: saline 114 % of control | endpoint: mean survival time, dose: 20.0 mg/kg/injection, schedule: Q01DX Z (oral), vehicle: saline 106 % of control | endpoint: mean survival time, dose: 25.0 mg/kg/injection, schedule: Q01DX001 (ip), vehicle: other 112 % of control | endpoint: mean survival time, dose: 32.0 mg/kg/injection, schedule: Q01DX001 (ip), vehicle: saline 108 % of control | endpoint: mean survival time, dose: 32.0 mg/kg/injection, schedule: Q01DX001 (iv), vehicle: saline 96 % of control | endpoint: mean survival time, dose: 32.0 mg/kg/injection, schedule: Q01DX009 (oral), vehicle: saline 102 % of control | endpoint: mean survival time, dose: 32.0 mg/kg/injection, schedule: Q01DX009 (sc), vehicle: saline 106 % of control | endpoint: mean survival time, dose: 32.0 mg/kg/injection, schedule: Q01DX Z (sc), vehicle: steriod suspending solution 100 % of control | endpoint: mean survival time, dose: 32.0 mg/kg/injection, schedule: Q03HX016 (ip), vehicle: saline 110 % of control | endpoint: mean survival time, dose: 32.0 mg/kg/injection, schedule: Q04DX003 (ip), vehicle: saline 107 % of control | endpoint: mean survival time, dose: 32.0 mg/kg/injection, schedule: Q08DX002 (ip), vehicle: saline 98 % of control | endpoint: mean survival time, dose: 37.0 mg/kg/injection, schedule: Q01DX001 (ip), vehicle: other 107 % of control | endpoint: mean survival time, dose: 40.0 mg/kg/injection, schedule: Q01DX001 (ip), vehicle: saline 110 % of control | endpoint: mean survival time, dose: 40.0 mg/kg/injection, schedule: Q01DX009 (ip), vehicle: saline 97 % of control | endpoint: mean survival time, dose: 40.0 mg/kg/injection, schedule: Q01DX010 (oral), vehicle: water 104 % of control | endpoint: mean survival time, dose: 40.0 mg/kg/injection, schedule: Q01DX Z (ip), vehicle: saline 109 % of control | endpoint: mean survival time, dose: 50.0 mg/kg/injection, schedule: Q01DX001 (ip), vehicle: water 110 % of control | endpoint: mean survival time, dose: 56.0 mg/kg/injection, schedule: Q01DX001 (ip), vehicle: other 111 % of control | endpoint: mean survival time, dose: 61.6 mg/kg/injection, schedule: Q07DX Z (ip), vehicle: carboxymethylcellulose (CMC) 112 % of control | endpoint: mean survival time, dose: 64.0 mg/kg/injection, schedule: Q01DX001 (ip), vehicle: saline 114 % of control | endpoint: mean survival time, dose: 64.0 mg/kg/injection, schedule: Q01DX001 (oral), vehicle: saline 106 % of control | endpoint: mean survival time, dose: 64.0 mg/kg/injection, schedule: Q01DX001 (sc), vehicle: saline 98 % of control | endpoint: mean survival time, dose: 64.0 mg/kg/injection, schedule: Q01DX009 (oral), vehicle: saline 98 % of control | endpoint: mean survival time, dose: 64.0 mg/kg/injection, schedule: Q01DX Z (sc), vehicle: steriod suspending solution 101 % of control | endpoint: mean survival time, dose: 64.0 mg/kg/injection, schedule: Q08DX002 (ip), vehicle: saline 104 % of control | endpoint: mean survival time, dose: 80.0 mg/kg/injection, schedule: Q01DX001 (ip), vehicle: saline 103 % of control | endpoint: mean survival time, dose: 80.0 mg/kg/injection, schedule: Q01DX010 (oral), vehicle: water 110 % of control | endpoint: mean survival time, dose: 93.1 mg/kg/injection, schedule: Q07DX Z (ip), vehicle: carboxymethylcellulose (CMC) 110 % of control | endpoint: mean survival time, dose: 128.0 mg/kg/injection, schedule: Q01DX001 (oral), vehicle: saline 98 % of control | endpoint: mean survival time, dose: 128.0 mg/kg/injection, schedule: Q01DX001 (sc), vehicle: saline 98 % of control | endpoint: mean survival time, dose: 128.0 mg/kg/injection, schedule: Q08DX002 (ip), vehicle: saline 104 % of control | endpoint: mean survival time, dose: 140.0 mg/kg/injection, schedule: Q07DX Z (ip), vehicle: carboxymethylcellulose (CMC) 112 % of control | endpoint: mean survival time, dose: 160.0 mg/kg/injection, schedule: Q01DX010 (oral), vehicle: water 110 % of control | endpoint: mean survival time, dose: 256.0 mg/kg/injection, schedule: Q01DX001 (oral), vehicle: saline 98 % of control | endpoint: mean survival time, dose: 256.0 mg/kg/injection, schedule: Q01DX001 (sc), vehicle: saline 105 % of control | endpoint: mean survival time, dose: 256.0 mg/kg/injection, schedule: Q01DX009 (oral), vehicle: saline 104 % of control and 114 % of control | endpoint: mean survival time, dose: 288.0 mg/kg/injection, schedule: Q01DX Z (oral), vehicle: other 103 % of control | endpoint: mean survival time, dose: 432.0 mg/kg/injection, schedule: Q01DX Z (oral), vehicle: other 95 % of control | endpoint: mean survival time, dose: 512.0 mg/kg/injection, schedule: Q01DX001 (oral), vehicle: saline 106 % of control | endpoint: mean survival time, dose: 512.0 mg/kg/injection, schedule: Q01DX009 (oral), vehicle: saline 112 % of control | endpoint: mean survival time, dose: 1024.0 mg/kg/injection, schedule: Q01DX001 (oral), vehicle: saline 109 % of control | endpoint: median survival time, dose: 5.0 mg/kg/injection, schedule: Q01DX009 (ip), vehicle: saline 110 % of control and 113 % of control

— PubChem BioAssay AID248 (DTP/NCI, 2004)
